Results published in patent CN108290841A, “具有荧光性的类视黄醇x受体结合性分子及其用途” (Okayama University NUC, priority 2015, dated 2017).

Legend:
[1] = target: T1, RXRα protein (ligand binding domain (LBD)) [RXRα蛋白质(配体结合域(LBD))] (Homo sapiens, UniProt P19793); test: RXR binding of RXR ligands evaluated with compound 10 as fluorescent probe (Example 13); conditions: RXRα-LBD 100 nM, compound 10 100 nM; from EC50 by Cheng-Prusoff equation
T1 construct: 关于RXRα蛋白质(配体结合域(LBD)),将Active Motif社制的物质以100nM使用; purchased Active Motif
T1 sequence (P19793 227-458 limits assumed): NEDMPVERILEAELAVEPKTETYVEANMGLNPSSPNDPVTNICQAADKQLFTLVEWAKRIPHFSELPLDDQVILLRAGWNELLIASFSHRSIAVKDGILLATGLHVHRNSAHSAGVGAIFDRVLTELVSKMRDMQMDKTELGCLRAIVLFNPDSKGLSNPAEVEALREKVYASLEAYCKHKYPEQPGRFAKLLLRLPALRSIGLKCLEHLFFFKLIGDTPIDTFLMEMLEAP

[2] = target: T1, RXRα protein (ligand binding domain (LBD)) [RXRα蛋白质(配体结合域(LBD))]; test: Detection of RXR binding of RXR ligands with compound 44 (Example 15); conditions: test compound 1 μM, compound 44 30 nM, RXRα-LBD 100 nM
[3] = target: T2, full-length RXRα protein [全长RXRα蛋白质] (Homo sapiens, UniProt P19793); test: Combined assay: RXR activation by fluorescence polarization of fluorescein-PGC1a coactivator peptide (Example 16); assay type: biochemical; conditions: test compound 10 μM, full-length RXRα 3 μM, compound 10 3 μM, fluorescein-PGC1a 30 nM
T2 construct: 全长RXRα蛋白质使用3μM
T2 sequence (P19793 1-462): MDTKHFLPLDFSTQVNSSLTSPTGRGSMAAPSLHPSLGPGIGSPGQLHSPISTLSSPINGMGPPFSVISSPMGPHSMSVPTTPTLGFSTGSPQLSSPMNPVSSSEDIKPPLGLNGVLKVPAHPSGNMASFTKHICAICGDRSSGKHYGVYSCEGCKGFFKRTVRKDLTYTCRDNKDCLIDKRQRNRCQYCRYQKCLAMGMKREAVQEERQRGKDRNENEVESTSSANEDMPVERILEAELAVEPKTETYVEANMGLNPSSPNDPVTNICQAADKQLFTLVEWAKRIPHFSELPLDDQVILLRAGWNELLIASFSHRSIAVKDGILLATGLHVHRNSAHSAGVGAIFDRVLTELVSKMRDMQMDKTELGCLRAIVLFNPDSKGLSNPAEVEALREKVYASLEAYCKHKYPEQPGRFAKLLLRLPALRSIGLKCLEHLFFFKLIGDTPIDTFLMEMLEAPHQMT

[4] = Blood concentration after oral administration to mice (Example 17); assay type: in vivo; conditions: mouse (male ICR, 6 weeks)
NFκB = conditions: LPS 1 ng/mL, 24 h; relative to LPS without test compound as 100%
[5] = test system: retinoid X receptor (RXR) [类视黄醇X受体]; test: Luciferase reporter gene assay for RXR transcriptional activation (Example 9); assay type: cell-based; conditions: COS-1 cells; for RXR agonist activity: relative to transcriptional activity with 1 μM bexarotene set to 1

For `Cc1cc2c(cc1-n1c(C(F)(F)F)nc3cc(C(=O)O)ccc31)C(C)(C)CCC2(C)C` [CBTF-PMN], which Ki [1] is on record?
Its Ki is 73 nM.

For `CCN(c1ccc(C(=O)O)cn1)c1cc(OCC(C)C)c(C(C)C)cc1/C=C/c1ccccc1` [NEt-SB], which “change of fluorescence intensity of compound 44 by test compound” value [2] is on record?
The value was “荧光强度减少”.

What does the source list for `CCCCCCOc1cc2c(cc1N(C)c1ncc(C(=O)O)cn1)C(C)(C)CCC2(C)C` [PA452]?
fluorescence polarization of fluorescein-PGC1a [3]: 减少; Ki [1]: 108 nM

For `Cc1cc2c(cc1-c1cc3cc(C(=O)O)c(=O)oc3cc1O)C(C)(C)CCC2(C)C` [化合物10], which concentration at 0.5 h ([4]; in vivo, 30 mg/kg oral, 0.5 h after administration) is on record?
Its concentration at 0.5 h is roughly 3000 nM.

What about the disappearance from blood ([4]; 30 mg/kg oral, 0.5, 1, 3 and 6 h) of the same compound?
The disappearance from blood was “时间依赖性地从血液中消失”.

And the “SEAP activity / inhibitory activity on NFκB transcriptional activity” value (NFκB)?
Its value is “抑制SEAP活性,显示对于NFκB的抑制活性”.

Which RXR agonist activity [5] does the source give for `COc1cc2c(cc1-c1cc3cc(C(=O)O)c(=O)oc3cc1O)C(C)(C)CCC2(C)C` [化合物23a] here?
Its RXR agonist activity is “确认到RXR激动剂活性”.

For `CCCOc1cc2c(cc1-c1cc3cc(C(=O)O)c(=O)oc3cc1O)C(C)(C)CCC2(C)C` [化合物23b], which RXR agonist activity [5] is on record?
Its RXR agonist activity is “确认到RXR激动剂活性”.

For `CCCCCOc1cc2c(cc1-c1cc3cc(C(=O)O)c(=O)oc3cc1O)C(C)(C)CCC2(C)C` [化合物23c], which RXR antagonist activity ([5]; in the presence of the RXR agonist NEt-TMN (printed for compound 44; others tested similarly)) is on record?
Its RXR antagonist activity is “确认到RXR拮抗剂活性”.

With `Cc1cc(OC(C)C)c(C(C)C)cc1-c1cc2cc(C(=O)O)c(=O)oc2cc1O` [化合物30] as the compound, how does the RXR agonist activity [5] read?
The RXR agonist activity was “确认到RXR激动剂活性”.
